Experimental data published in ChEMBL document CHEMBL4813986, “Multicomponent synthesis and anti-proliferative screening of biaryl triazole-containing cyclophanes” (Bioorg Med Chem Lett, 2021).
Values after ≈ are worked out from the molar mass of the structure shown. Blank lines part the entries; values can stand above or below the compound they belong to. Active and inactive are the calls of the source. The calls are words filed in the database; no cut-off is given here.

How the values were obtained:
[1] = Cytotoxicity against African green monkey COS7 cells assessed as inhibition of cell growth at 50 uM relative to control; assay type: cell-based; settings: chlorocebus aethiops, COS-7 cells
[2] = tested on: MCF7; test: Antiproliferative activity against human MCF7 cells assessed as inhibition of cell growth at 50 uM relative to control; assay type: functional
[3] = tested on: PC-3; test: Antiproliferative activity against human PC-3 cells assessed as inhibition of cell growth at 50 uM relative to control; assay type: functional
[4] = tested on: DU-145; test: Antiproliferative activity against human DU-145 cells assessed as inhibition of cell growth at 50 uM relative to control; assay type: functional
[5] = tested on: PC-3; test: Antiproliferative activity against human PC-3 cells assessed as inhibition of cell growth; assay type: functional, cell-based
[6] = tested on: Bel-7402; test: Cytotoxicity against human Bel-7402 cells assessed as reduction in cell viability measured after 5 days by MTT assay; assay type: functional, cell-based
[7] = Aqueous solubility of the compound; assay type: physicochemical; settings: buffer

SMILES: CC(C)(C)NC(=O)C1c2cccc(c2)-c2ccc(cc2)OCc2cn(nn2)CCOc2ccc(cc2)CC(=O)N1Cc1ccccc1 (stereo not given)
- inhibition at 50 µM [1]: 37.8%
- inhibition at 50 µM [2]: 44.6%
- inhibition at 50 µM [3]: 48.3%
- inhibition at 50 µM [4]: 25.5%

SMILES: O=C(NC1CCCCC1)C1c2cccc(c2)-c2ccc(cc2)OCc2cn(nn2)CCOc2ccc(cc2)CC(=O)N1Cc1ccccc1 (stereo not given)
- inhibition at 50 µM [1]: 9.9%
- inhibition at 50 µM [2]: 15.2%
- inhibition at 50 µM [3]: 11.6%
- inhibition at 50 µM [4]: 11%

SMILES: CCCCCCCCCCCCNC(=O)C1c2cccc(c2)-c2ccc(cc2)OCc2cn(nn2)CCOc2ccc(cc2)CC(=O)N1c1ccc(C(F)(F)F)cc1 (stereo not given)
- inhibition at 50 µM [1]: 33.6%
- inhibition at 50 µM [2]: 41.7%
- inhibition at 50 µM [3]: 45.8%
- inhibition at 50 µM [4]: 19.7%

SMILES: CCCCCCCCCCCCNC(=O)C1c2cccc(c2)-c2ccc(cc2)OCc2cn(nn2)CCCCCOc2ccc(cc2)CC(=O)N1c1ccc(C(F)(F)F)cc1 (stereo not given)
- inhibition at 50 µM [1]: 10.2%
- inhibition at 50 µM [2]: 24.9%
- inhibition at 50 µM [3]: 22%
- inhibition [4]: inactive

SMILES: CCCCCCCCCCCCNC(=O)C1c2cccc(c2)-c2ccc(cc2)OCc2cn(nn2)CCCOc2ccc(cc2)CC(=O)N1c1ccc(C(F)(F)F)cc1 (stereo not given)
- inhibition at 50 µM [1]: 20.4%
- inhibition at 50 µM [2]: 45.6%
- inhibition at 50 µM [3]: 15.3%
- inhibition at 50 µM [4]: 9.8%

- IC50 [5]: 9.7 µM
SMILES: CC(C)c1ccc(N2C(=O)Cc3ccc(cc3)OCCCn3cc(nn3)COc3cccc(c3)C2C(=O)NC2CCCCC2)cc1 (stereo not given)

- IC50 [5]: 13.9 µM
SMILES: CCCCCCCCCCCCNC(=O)C1c2cccc(c2)-c2ccc(cc2)OCc2cn(nn2)CCOc2ccc(cc2)CC(=O)N1c1ccc(F)cc1 (stereo not given)
- inhibition at 50 µM [1]: 35%
- inhibition at 50 µM [2]: 82.4%
- inhibition at 50 µM [3]: 68.3%
- inhibition at 50 µM [4]: 93.1%

SMILES: CC1=C[C@H]2O[C@@H]3C[C@H]4OC(=O)/C=C\C=C\[C@@H]5O[C@@H](O[C@H]5C)[C@H](O)/C(C)=C/C(=O)OC[C@@]2(CC1)[C@]4(C)[C@]31CO1
- IC50 [6]: 0.35 µg/mL (≈ 0.662 µM)

SMILES: O=C(NC1CCCCC1)C1c2cccc(c2)-c2ccc(cc2)OCc2cn(nn2)CCOc2ccc(cc2)CC(=O)N1c1ccc(C(F)(F)F)cc1 (stereo not given)
- inhibition at 50 µM [1]: 37.7%
- inhibition at 50 µM [2]: 45.8%
- inhibition at 50 µM [3]: 46.9%
- inhibition at 50 µM [4]: 37.1%

SMILES: CC(C)(C)NC(=O)C1c2cccc(c2)-c2ccc(cc2)OCc2cn(nn2)CCCOc2ccc(cc2)CC(=O)N1Cc1ccccc1 (stereo not given)
- inhibition at 50 µM [1]: 33.1%
- inhibition at 50 µM [2]: 67.9%
- inhibition at 50 µM [3]: 5.5%
- inhibition [4]: inactive

SMILES: CCCCCCCCCCCCNC(=O)C1c2cccc(c2)-c2ccc(cc2)OCc2cn(nn2)CCCCOc2ccc(cc2)CC(=O)N1c1ccc(C(F)(F)F)cc1 (stereo not given)
- inhibition at 50 µM [1]: 16.6%
- inhibition at 50 µM [2]: 42.9%
- inhibition at 50 µM [3]: 36.4%
- inhibition at 50 µM [4]: 52.8%

SMILES: O=C(NC1CCCCC1)C1c2cccc(c2)-c2ccc(cc2)OCc2cn(nn2)CCCOc2ccc(cc2)CC(=O)N1c1ccc(C(F)(F)F)cc1 (stereo not given)
- inhibition at 50 µM [1]: 30.9%
- inhibition at 50 µM [2]: 60.9%
- inhibition at 50 µM [3]: 35.5%
- inhibition at 50 µM [4]: 20.1%

- solubility [7]: Insoluble
SMILES: CCCCCCCCCCCCNC(=O)C1c2cccc(c2)-c2ccc(cc2)OCc2cn(nn2)CCOc2ccc(cc2)CC(=O)N1c1ccc(C(C)C)cc1 (stereo not given)
- inhibition at 50 µM [1]: 25.6%
- inhibition at 50 µM [2]: 39.2%
- inhibition at 50 µM [3]: 25.4%
- inhibition at 50 µM [4]: 51%

- solubility [7]: Insoluble
SMILES: CCCCCCCCCCCCNC(=O)C1c2cccc(c2)-c2ccc(cc2)OCc2cn(nn2)CCCOc2ccc(cc2)CC(=O)N1c1ccc(C(C)C)cc1 (stereo not given)
- inhibition at 50 µM [1]: 9.9%
- inhibition at 50 µM [2]: 31.8%
- inhibition at 50 µM [3]: 30.1%
- inhibition at 50 µM [4]: 21.2%

SMILES: O=C(NC1CCCCC1)C1c2cccc(c2)-c2ccc(cc2)OCc2cn(nn2)CCOc2ccc(cc2)CC(=O)N1c1ccc(F)cc1 (stereo not given)
- inhibition at 50 µM [1]: 43.2%
- inhibition at 50 µM [2]: 43.2%
- inhibition at 50 µM [3]: 50.3%
- inhibition at 50 µM [4]: 28.4%

SMILES: O=C(NC1CCCCC1)C1c2cccc(c2)-c2ccc(cc2)OCc2cn(nn2)CCCCCOc2ccc(cc2)CC(=O)N1c1ccc(C(F)(F)F)cc1 (stereo not given)
- inhibition at 50 µM [1]: 45.4%
- inhibition at 50 µM [2]: 53.3%
- inhibition at 50 µM [3]: 46%
- inhibition at 50 µM [4]: 48.8%

- IC50 [5]: 4.6 µM
SMILES: CC(C)c1ccc(N2C(=O)Cc3ccc(cc3)OCCn3cc(nn3)COc3ccc(cc3)-c3cccc(c3)C2C(=O)NC2CCCCC2)cc1 (stereo not given)
- inhibition at 50 µM [1]: 37.5%
- inhibition at 50 µM [2]: 81.8%
- inhibition at 50 µM [3]: 90.2%
- inhibition at 50 µM [4]: 93.8%

SMILES: CCCCCCCCCCCCNC(=O)C1c2cccc(c2)-c2ccc(cc2)OCc2cn(nn2)CCOc2ccc(cc2)CC(=O)N1Cc1ccccc1 (stereo not given)
- inhibition at 50 µM [1]: 28.2%
- inhibition at 50 µM [2]: 26.4%
- inhibition at 50 µM [3]: 25.8%
- inhibition at 50 µM [4]: 10.4%

- IC50 [5]: 31.5 µM
SMILES: COc1cc([C@@H]2c3cc4c(cc3[C@@H](O[C@@H]3O[C@@H]5CO[C@@H](C)O[C@H]5[C@H](O)[C@H]3O)[C@H]3COC(=O)[C@H]23)OCO4)cc(OC)c1O [ETOPOSIDE]

- IC50 [5]: 13.8 µM
SMILES: CC(C)c1ccc(N2C(=O)Cc3ccc(cc3)OCCCn3cc(nn3)COc3ccc(cc3)-c3cccc(c3)C2C(=O)NC2CCCCC2)cc1 (stereo not given)
- inhibition at 50 µM [1]: 48%
- inhibition at 50 µM [2]: 58.2%
- inhibition at 50 µM [3]: 60.8%
- inhibition at 50 µM [4]: 41.9%

SMILES: O=C(NC1CCCCC1)C1c2cccc(c2)-c2ccc(cc2)OCc2cn(nn2)CCCCOc2ccc(cc2)CC(=O)N1c1ccc(C(F)(F)F)cc1 (stereo not given)
- inhibition at 50 µM [1]: 38.1%
- inhibition at 50 µM [2]: 57.1%
- inhibition at 50 µM [3]: 48.5%
- inhibition at 50 µM [4]: 39%
